Experimental data taken from patent US20150105252A1, “SUBSTITUTED PYRAZOLES AS HERBICIDES” (E I DU PONT DE NEMOURS AND COMPANY, priority 2013, published 2015).

Experiments:
nightshade = assay: Test C preemergence; type: in vivo, Solanum ptycanthum; conditions: for Plant response rating (scale of 0 to 100), Nightshade: Preemergence, 250 g ai/ha; for Nightshade plant response rating / Plant response rating, Nightshade: preemergence; for Plant response rating, Nightshade: 62 g ai/ha, scale 0 to 100, 0 = no effect, 100 = complete control
From the text: (§1) Seeds of plant species selected from blackgrass (Alopecurus myosuroides), ryegrass, Italian (Italian ryegrass, Lolium multiflorum), wheat (winter wheat, Triticum aestivum), galium (catchweed bedstraw, Galium aparine), corn (Zea mays), crabgrass, large (large crabgrass, Digitaria sanguinalis), foxtail, giant (giant foxtail, Setaria faberii), johnsongrass (Sorghum halepense), lambsquarters (Chenopodium album), morningglory (Ipomoea coccinea), nutsedge, yellow (yellow nutsedge, Cyperus esculentus), pigweed (redroot pigweed, Amaranthus retroflexus), ragweed (common ragweed, Ambrosia elation), soybean (Glycine max), barnyardgrass (Echinochloa crus-galli), oilseed rape (Brassica napus), waterhemp (common waterhemp, Amaranthus rudis), oat, wild (wild oat, Avena fatua), kochia (Kochia scoparia), Surinam grass (Brachiaria decumbens), foxtail, green (green foxtail, Setaria viridis), goosegrass (Eleusine indica), bromegrass, downy (downy bromegrass, Bromus tectorum), nightshade (eastern black nightshade, Solanum ptycanthum), cocklebur (common cocklebur, Xanthium strumarium), cupgrass, woolly (woolly cupgrass, Eriochloa villosa), bermudagrass (Cynodon dactylon), sunflower, (common oilseed sunflower, Helianthus annuus), Russian thistle (Salsola kali), and velvetleaf (Abutilon theophrasti) were planted into a blend of loam soil and sand and treated preemergence with test chemicals formulated in a non-phytotoxic solvent mixture which included a surfactant.
(§2) At the same time, plants selected from these crop and weed species and also chickweed (common chickweed, Stellaria media), canarygrass (littleseed canarygrass, Phalaris minor), and deadnettle (henbit deadnettle, Lamium amplexicaule), were planted in pots containing Redi-Earth® planting medium (Scotts Company, 14111 Scottslawn Road, Marysville, Ohio 43041) comprising spaghnum peat moss, vermiculite, wetting agent and starter nutrients and treated with postemergence applications of test chemicals formulated in the same manner. Plants ranged in height from 2 to 18 cm (1- to 4-leaf stage) for postemergence treatments. Treated plants and controls were maintained in a greenhouse for 13 to 15 days, after which time all species were compared to controls and visually evaluated. Plant response ratings, summarized in Table C, are based on a scale of 0 to 100 where 0 is no effect and 100 is complete control. A dash (-) response means no test result.

sunflower = assay: Test C preemergence; type: in vivo, Helianthus annuus; conditions: for Plant response rating (scale of 0 to 100), Sunflower: Preemergence, 250 g ai/ha; for Sunflower plant response rating / Plant response rating, Sunflower: preemergence; for Plant response rating, Sunflower: 62 g ai/ha, scale 0 to 100, 0 = no effect, 100 = complete control
From the text: as §1, §2

bermudagrass = assay: Test C postemergence; type: in vivo, Cynodon dactylon; conditions: for Bermudagrass plant response rating: scale 0 to 100
From the text: as §1, §2

canarygrass = assay: Test C postemergence; type: in vivo, Phalaris minor; conditions: for Canarygrass plant response rating: scale 0 to 100
From the text: as §1, §2

windgrass = assay: Test C postemergence; type: in vivo, Apera spica-venti; conditions: 250 g ai/ha, scale 0 to 100 (0 no effect, 100 complete control)
[1] = 31 g ai/ha, scale 0 to 100 (0 no effect, 100 complete control), 13 to 15 days
[2] = 125 g ai/ha, scale 0 to 100, 0 is no effect, 100 is complete control
[3] = postemergence, 250 g ai/ha, scale 0 to 100 (0 no effect, 100 complete control)
[4] = postemergence, 125 g ai/ha, scale 0 to 100, 0 no effect, 100 complete control
[5] = postemergence, 62 g ai/ha, scale 0 to 100, 0 no effect, 100 complete control

SMILES | Plant response rating (scale of 0 to 100), Nightshade (nightshade) | Nightshade plant response rating (nightshade; [1]) | Plant response rating, Nightshade (nightshade; 13 to 15 days) | Nightshade plant response rating (nightshade; [2]) | Plant response rating (scale of 0 to 100), Sunflower (sunflower) | Sunflower plant response rating (sunflower; [1]) | Plant response rating, Sunflower (sunflower; 13 to 15 days) | Sunflower plant response rating (sunflower; [2]) | Bermudagrass plant response rating (bermudagrass; Postemergence, 31 g ai/ha) | Bermudagrass plant response rating (bermudagrass; postemergence, 62 g ai/ha) | Plant response rating, Bermudagrass (bermudagrass; [3]) | Plant response rating, Bermudagrass (bermudagrass; [4]) | Canarygrass plant response rating (canarygrass; Postemergence, 31 g ai/ha) | Canarygrass plant response rating (canarygrass; postemergence, 62 g ai/ha) | Plant response rating, Canarygrass (canarygrass; [3]) | Plant response rating, Canarygrass (canarygrass; [4]) | Plant response rating, Windgrass (windgrass) | Plant response rating, Bermudagrass (bermudagrass; [5]) | Plant response rating, Canarygrass (canarygrass; [5])
Cc1cc(C(=O)NCC(F)(F)F)nn1Cc1ccnc(C(F)(F)F)c1 [Compound 74] | 98 | 90 | 90 | 95 | 95 | 10 | 40 | 75 | 5 | 5 | 5 | 5 | 0 | 0 | 5 | 0 | 5 |  | 
CCc1cc(C(=O)NOC(C)C)nn1Cc1cccc(OC(F)(F)F)c1 [Compound 70] | 98 | 70 | 98 | 98 | 5 | 0 | 0 | 5 | 5 |  | 10 | 10 | 0 |  | 60 | 15 | 50 | 5 | 5
